The record followed here is ChEMBL document CHEMBL1123561, “Aryl diazo compounds and diazonium salts as potential irreversible probes of the gamma-aminobutyric acid receptor” (J Med Chem, 1987).

In series [1] the target is T1, GABA-A receptor; anion channel (Rattus norvegicus) (UniProt O09028+P15431+P18506+P18508+P19969+P20236+P23574+P23576+P28471+P28473+P30191+P62813+P63079+P63138+Q91ZM7+Q9ES14). As to the kind of experiment: Inhibition of [3H]GABA binding to Gamma-aminobutyric acid (GABA-A) receptor isolated from rat brain homogenates at 5*10e-4 M.
The nature of series [2]: Half-life period was determined at 20 degree Celsius at UV lambdamax nm of 346 (44000); Stable. The format is ADME.
Series [3] is described as follows: Half-life period was determined at 20 degree Celsius at UV lambdamax nm of 306 (24000); Stable. The format is ADME.
Series [4] can be described thus: Half-life period was determined at 20 degree Celsius at UV lambdamax nm of 258 (8500). The format is ADME.
Series [5] is described as follows: Half-life period was determined at 20 degree Celsius at UV lambdamax nm of 258 (9800); Stable. The format is ADME.
Series [6] concerns the target GABA-A receptor; anion channel. As to the kind of experiment: Inhibition of [3H]GABA binding to Gamma-aminobutyric acid (GABA-A) receptor of rat brain homogenates.
The nature of series [7]: Half-life period was determined at 20 degree Celsius at UV lambdamax nm of 313 (23000); Stable. The class given is ADME.
A short description of series [8]: Half-life period was determined at 20 degree Celsius at UV lambdamax nm of 348 (44000); Stable. The format is ADME.
Series [9] can be described thus: Half-life period was determined at 20 degree Celsius at UV lambdamax nm of 328 (12000). The class given is ADME.
Series [10] is described as follows: Half-life period was determined at 20 degree Celsius at UV lambdamax nm of 321 (6500). The class given is ADME.
A short description of series [11]: Half-life period was determined at 20 degree Centigrade at UV lambdamax nm of 328 (9000). The format is ADME.
The subject of series [12] is GABA-A receptor; anion channel. Briefly: Inhibition of [3H]GABA binding to Gamma-aminobutyric acid (GABA-A) receptor of rat brain homogenates (unstable).
Series [13] in a line: Half-life period was determined at 20 degree Celsius at UV lambdamax nm of 260 (9600), 350 (5000); Stable. The class given is ADME.
The nature of series [14]: Half-life period was determined at 20 degree Celsius at UV lambdamax nm of 390 (5900); Stable. The format is ADME.
The nature of series [15]: Half-life period was determined at 20 degree Celsius at UV lambdamax nm of 256 (16000), 349 (9000). The class given is ADME.
The nature of series [16]: Half-life period was determined at 20 degree Celsius at UV lambdamax nm of 257 (14000), 350 (7900)stable. The format is ADME.
Series [17] in a line: Half-life period was determined at 20 degree Centigrade at UV lambdamax nm of 306 (24000). The format is ADME.
A short description of series [18]: Half-life period was determined at 20 degree Celsius at UV lambdamax nm of 314 (24000); stable. The class given is ADME.
Series [19] is described as follows: Half-life period was determined at 20 degree Celsius at UV lambdamax nm of 313 (22000). The class given is ADME.
Series [20] is described as follows: Half-life period was determined at 20 degree Centigrade at UV lambdamax nm of 313 (12000). The format is ADME.
A short description of series [21]: Half-life period was determined at 20 degree Celsius at UV lambdamax nm of 310 (16600). The format is ADME.
Series [22] has as its target Gamma-aminobutyric acid receptor subunit gamma-1 (Rattus norvegicus, UniProt P23574). Briefly: Inhibition of [3H]-GABA binding to Gamma-aminobutyric acid (GABA-A) receptor of rat brain homogenates (Unstable).
The nature of series [23]: Half-life period was determined at 20 degree Centigrade at UV lambdamax nm of 299 (8000). The format is ADME.
In series [24] the target is T1, GABA-A receptor; anion channel (Rattus norvegicus). Briefly: Inhibition of [3H]-GABA binding to Gamma-aminobutyric acid (GABA-A) receptor of rat brain homogenates at 10e-5 M.
The target in series [25] is Gamma-aminobutyric acid receptor subunit gamma-1 (Rattus norvegicus) (UniProt P23574). Briefly: Inhibition of [3H]GABA binding to Gamma-aminobutyric acid (GABA-A) receptor of rat brain homogenates at 5*10e-4 M.
The nature of series [26]: Half-life period was determined at 20 degree Celsius at UV lambdamax nm of 268 (16000). The format is ADME.
The nature of series [27]: Half-life period was determined at 20 degree Celsius at UV lambdamax nm of 266 (16000); Stable. The class given is ADME.
Series [28] in a line: Half-life period was determined at 20 degree Celsius at UV lambdamax nm of 316 (22000). The class given is ADME.
The nature of series [29]: Half-life period was determined at 20 degree Celsius at UV lambdamax nm of 319 (22000). The class given is ADME.
Series [30] can be described thus: Half-life period was determined at 20 degree Celsius at UV lambdamax nm of 323 (23000); Stable. The format is ADME.
A short description of series [31]: Half-life period was determined at 20 degree Celsius at UV lambdamax nm of 345 (23000); Stable. The class given is ADME.
Series [32] in a line: Half-life period was determined at 20 degree Celsius at UV lambdamax nm of 304(7800); unstable. The format is ADME.
Series [33] can be described thus: Half-life period was determined at 20 degree Centigrade at UV lambdamax nm of 328; Unstable. The format is ADME.
The nature of series [34]: Half-life period was determined at 20 degree Celsius at UV lambdamax nm of 255 (14000), 339 (7500). The class given is ADME.
Series [35] can be described thus: Half-life period was determined at 20 degree Celsius at UV lambdamax nm of 254 (15000), 341 (7800). The format is ADME.

Each structure is given as a SMILES string.

Sequence of Gamma-aminobutyric acid receptor subunit gamma-1 (Rattus norvegicus) (P23574 whole entry): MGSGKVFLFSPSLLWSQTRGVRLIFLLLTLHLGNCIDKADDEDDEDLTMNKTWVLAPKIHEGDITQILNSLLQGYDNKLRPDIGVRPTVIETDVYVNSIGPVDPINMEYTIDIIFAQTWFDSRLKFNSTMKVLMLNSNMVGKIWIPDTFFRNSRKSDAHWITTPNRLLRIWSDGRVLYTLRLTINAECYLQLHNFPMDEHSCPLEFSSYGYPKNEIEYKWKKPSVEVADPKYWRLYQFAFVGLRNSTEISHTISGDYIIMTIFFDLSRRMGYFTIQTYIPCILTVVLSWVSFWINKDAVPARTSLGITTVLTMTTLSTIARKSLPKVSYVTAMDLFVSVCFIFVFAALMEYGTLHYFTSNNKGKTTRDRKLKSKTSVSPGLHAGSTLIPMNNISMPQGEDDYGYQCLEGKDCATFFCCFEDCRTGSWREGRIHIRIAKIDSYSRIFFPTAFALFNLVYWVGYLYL
Sequence of Gamma-aminobutyric acid receptor subunit gamma-1 (P23574 whole entry): as above

What is called inhibition is the percentage by which the read-out fell short of the control. Low readings indicate little suppression, high ones strong suppression. `[N-]=[N+]=C1C=CC(=O)C(S(=O)(=O)O)=C1` returned an inhibition in [1] of 15%. The T1/2 entry in [2] and in [3] was “Stable” in each case.
Usually half-life stands for the time in which the quantity being followed falls by half. In series [4], `N#[N+]c1cccc(C(=O)[O-])c1` registered a half-life of 80 min. Besides, the inhibition in series [1] came out at 30%. For the same compound, the T1/2 result in series [5] is listed as “Stable”.
What is called IC50 is the concentration that gives 50% inhibition. In series [6], `N#[N+]c1cccc(S(=O)(=O)[O-])c1` had an IC50 of 5 µM.
`Nc1ncc[nH]1` showed an inhibition in series [1] of 0%.
For `[N-]=[N+]=C1C=CC(=O)C=C1`, the T1/2 result in series [7] and in series [8] was “Stable” throughout. This compound registered an inhibition in [1] of 15%.
For `N#[N+]c1nc(CC(=O)[O-])cs1`, the half-life in series [9] was 2880 min; in series [10] it was 2580 min; in [11], 25 min. Besides, in [12], the IC50 entry is “Unstable”.
In series [1], `Nc1nc(CC(N)C(=O)O)c[nH]1` (stereo not given) came in with an inhibition below 50%.
Take `[N-]=[N+]=C1C=C(S(=O)(=O)O)C=CC1=O`: in series [1], the inhibition is 15%. For the same compound, the T1/2 entry in series [13] and in [14] was “Stable” in each case.
`N#[N+]c1ccc2cccc(S(=O)(=O)[O-])c2c1` had an IC50 in series [6] below 10 µM. Moreover, the half-life in series [15] was determined as 45 min. Also, the T1/2 result in series [16] was “Stable”.
Consider `N#[N+]C1N=CC[N-]1` (stereo not given), for which the half-life is 2880 min in series [17] and 480 min in series [19]. For the same compound, the IC50 in [6] was 500 µM. Also, the T1/2 entry in series [18] was “Stable”.
In series [1], `NCc1ccc[n+]([O-])c1` yielded an inhibition of 20%.
`N#[N+]c1nccn1CC(=O)[O-]`: the results for the half-life in [20], in series [21] and in series [23] were 22 min, 720 min and 180 min, respectively. In addition, the IC50 result in series [22] is recorded as “Unstable”.
`Nc1nccn1CC(=O)O` displayed an inhibition in [1] of 20%.
In [24], `Nc1nc(CC(=O)O)cs1` yielded an inhibition of 25%.
In series [25], `N#[N+]c1ccc(S(=O)(=O)[O-])cc1` gave an inhibition below 50%. This compound had a half-life in series [26] of 360 min. The T1/2 result in series [27] was “Stable”.
In series [6], `N#[N+]c1nc(CC(=O)[O-])c[nH]1` yielded an IC50 of 70 µM. Besides, the half-life in [28] is 2.5 days; in series [29] it was 660 min. The T1/2 entry in series [30] is recorded as “Stable”.
For the compound `N#[N+]c1cc[n+]([O-])cc1`, in series [12], the IC50 entry was “Unstable”. For the same compound, the T1/2 entry is listed as “Stable” in series [31] and “Unstable” in [32].
Compound `Nc1nc(CC(=O)O)c[nH]1` had an inhibition in [24] of 30%.
Turning to `N#[N+]c1ncc(CC(=O)[O-])s1`, the T1/2 entry in series [33] is “Unstable”. For the same compound, in series [12], the concentration for half-maximal inhibition (IC50) entry is on record as “Unstable”.
Turning to `N#[N+]c1cccc2cccc(S(=O)(=O)[O-])c12`, the IC50 in [6] is 10 µM. In addition, the half-life was 960 min in series [34] and 1320 min in series [35].
For the compound `Nc1ncc(CC(=O)O)s1`, the inhibition in series [25] is below 50%.
